Laboratory results taken from BindingDB's records for doi:10.1016/j.bmcl.2004.09.053 (Avenida De La Industria, 2004).

Experiments:
Assay in all cases: CDK Kinase Inhibition Assay
[1] = target: Cyclin-dependent kinase 2/G1/S-specific cyclin-E1 (Homo sapiens, UniProt P24941)
Description: (§1) In vitro CDK assay using purified enzyme, was incubated at room temperature with substrate, and test compounds in the presence of ATP/[gamma-33P]ATP. 33P incorporation was measured with a Top Count (Packard). IC50 is the inhibitor concentration which inhibits 50% of kinase activity that catalyzes the transfer of the terminal phosphate from 33P labeled ATP to the substrate.

[2] = target: Cyclin-dependent kinase/G2/mitotic-specific cyclin- 1 (Homo sapiens, UniProt P06493); conditions: 25 °C
Chain of Cyclin-dependent kinase/G2/mitotic-specific cyclin- 1 (P06493 whole entry): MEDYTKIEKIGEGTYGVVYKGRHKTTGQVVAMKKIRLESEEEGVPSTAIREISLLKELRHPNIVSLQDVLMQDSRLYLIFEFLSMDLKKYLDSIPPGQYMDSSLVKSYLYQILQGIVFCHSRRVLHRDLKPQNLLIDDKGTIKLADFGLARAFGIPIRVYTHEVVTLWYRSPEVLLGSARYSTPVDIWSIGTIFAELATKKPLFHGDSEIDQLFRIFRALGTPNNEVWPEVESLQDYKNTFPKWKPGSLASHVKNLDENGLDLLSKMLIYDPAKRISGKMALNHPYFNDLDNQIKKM
Chain of Cyclin-dependent kinase/G2/mitotic-specific cyclin- 1 (P14635 whole entry, further chain): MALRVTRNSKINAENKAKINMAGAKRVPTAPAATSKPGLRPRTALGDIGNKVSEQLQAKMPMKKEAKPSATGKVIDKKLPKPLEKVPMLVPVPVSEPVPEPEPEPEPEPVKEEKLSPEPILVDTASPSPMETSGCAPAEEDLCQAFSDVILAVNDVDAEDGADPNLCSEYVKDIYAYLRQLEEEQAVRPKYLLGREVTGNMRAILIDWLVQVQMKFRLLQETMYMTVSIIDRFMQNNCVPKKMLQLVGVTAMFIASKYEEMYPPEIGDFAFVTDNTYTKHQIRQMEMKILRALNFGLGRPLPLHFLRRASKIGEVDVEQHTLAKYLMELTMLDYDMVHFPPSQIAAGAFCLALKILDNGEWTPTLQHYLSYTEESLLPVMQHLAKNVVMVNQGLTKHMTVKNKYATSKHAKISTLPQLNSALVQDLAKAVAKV
Description: as §1

[3] = target: Cyclin-dependent kinase 4/G1/S-specific cyclin-D1 (Homo sapiens, UniProt P11802); conditions: 25 °C
Chain of Cyclin-dependent kinase 4/G1/S-specific cyclin-D1 (P11802 whole entry): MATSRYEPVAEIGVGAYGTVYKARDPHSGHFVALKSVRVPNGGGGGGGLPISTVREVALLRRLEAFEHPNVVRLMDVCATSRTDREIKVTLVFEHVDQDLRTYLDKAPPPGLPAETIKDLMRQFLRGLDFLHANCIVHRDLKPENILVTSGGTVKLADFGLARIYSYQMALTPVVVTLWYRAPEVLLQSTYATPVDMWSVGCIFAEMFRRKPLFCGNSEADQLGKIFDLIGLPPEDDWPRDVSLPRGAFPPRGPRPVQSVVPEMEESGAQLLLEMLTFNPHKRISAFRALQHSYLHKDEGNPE
Chain of Cyclin-dependent kinase 4/G1/S-specific cyclin-D1 (P24385 whole entry, further chain): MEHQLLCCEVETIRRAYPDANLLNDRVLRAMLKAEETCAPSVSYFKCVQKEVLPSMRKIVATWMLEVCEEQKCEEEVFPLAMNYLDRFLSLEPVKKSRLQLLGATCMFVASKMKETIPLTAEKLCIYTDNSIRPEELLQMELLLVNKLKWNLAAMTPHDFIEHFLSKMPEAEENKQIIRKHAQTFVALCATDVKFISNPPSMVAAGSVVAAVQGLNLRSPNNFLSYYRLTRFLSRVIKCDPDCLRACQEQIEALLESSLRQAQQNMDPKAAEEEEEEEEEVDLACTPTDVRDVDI
Description: as §1

Row | IC50 ([1]; 25 °C) [µM] | SMILES | IC50 ([1]; pH 7, 22 °C) [µM] | IC50 [2] [µM] | IC50 [3] [µM]
1 | 0.984 | CCN(CC)CCOc1cc(F)c(C(=O)c2c(N)nc3ccc(C(=O)c4c(Cl)cccc4Cl)cn23)c(F)c1 [6-[(2,6-dichlorophenyl)carbonyl]-3-({4-[2-(diethylamino)ethoxy]-2,6-difluorophenyl}carbonyl)imidazo[1,2-a]pyridin-2-amine] |  |  | 
2 |  | N#C/C=C(\c1ccc2nc(N)c(C(=O)c3c(F)cccc3F)n2c1)c1c(F)cccc1F [(2E)-3-{2-amino-3-[(2,6-difluorophenyl)carbonyl]imidazo[1,2-a]pyridin-6-yl}-3-(2,6-difluorophenyl)prop-2-enenitrile] | 0.16 | 0.053 | 1.55
3 | 0.896 | N#C/C=C(/c1ccc2nc(N)c(C(=O)c3c(F)cccc3F)n2c1)c1c(F)cccc1F [(2Z)-3-{2-amino-3-[(2,6-difluorophenyl)carbonyl]imidazo[1,2-a]pyridin-6-yl}-3-(2,6-difluorophenyl)prop-2-enenitrile] |  |  | 
